Converted amounts (≈) assume the structure as drawn. One block for each compound: values may come before it.
How the values were obtained:
[1] = Kinetic solubility of the compound; assay type: physicochemical; conditions: read-out: Kinetic_solubility
[2] = molecular target: T1, Tyrosine-protein kinase BTK (Homo sapiens, UniProt Q06187); test: Inhibition of BTK (unknown origin) using Poly(Glu4,Tyr1) as substrate in presence of ATP
[3] = Antiproliferative activity against human MINO cells reduction in cell viability incubated for 72 hrs by CellTiter-Glo luminescent cell viability assay; assay type: functional, cell-based
[4] = molecular target: T1, Tyrosine-protein kinase BTK; test: Inhibition of BTK (unknown origin) incubated for 40 mins by radiometric assay
U-937 [5] = test: Antiproliferative activity against human U-937 cells assessed as reduction in cell viability measured after 72 hrs by CCK-8 assay; conditions: U-937, 72 h
Raji [6] = test: Antiproliferative activity against human Raji cells assessed as reduction in cell viability measured after 72 hrs by CCK-8 assay; assay type: functional, cell-based
[7] = molecular target: T1, Tyrosine-protein kinase BTK; test: Inhibition of BTK (unknown origin) incubated for 60 mins by ADP-Glo kinase assay
U-937 [8] = test: Induction of apoptosis in human U-937 cells assessed as […] at 40 nM incubated for 48 hrs by AnnexinV-FITC/propidium iodide staining based flow cytometry analysis relative to control; assay type: functional
NAMALVA = test: Antiproliferative activity against human NAMALWA cells assessed as reduction in cell viability measured after 72 hrs by CCK-8 assay; assay type: functional, cell-based
HL-60 = test: Antiproliferative activity against human HL-60 cells assessed as reduction in cell viability measured after 72 hrs by CCK-8 assay; conditions: HL-60, 72 h
Ramos [9] = test: Antiproliferative activity against human Ramos cells assessed as reduction in cell viability measured after 72 hrs by CCK-8 assay; assay type: functional, cell-based
[10] = molecular target: T1, Tyrosine-protein kinase BTK; test: Inhibition of BTK (unknown origin) using Poly(Glu4,Tyr1) as substrate in presence of ATP by radiometric kinase assay
Bcr/Abl fusion protein = Bcr/Abl fusion protein (Homo sapiens, UniProt P00519); test: Inhibition of BCR-ABL (unknown origin) using peptide GGEAIYAAPFKK as substrate; assay type: protein assay
Ramos [11] = test: Antiproliferative activity against human Ramos cells assessed as growth inhibition incubated for 72 hrs by resazurin dye based fluorescence microplate reader analysis; assay type: functional
DOHH-2 = test: Antiproliferative activity against human DOHH-2 cells assessed as inhibition of cell proliferation by MTT assay; assay type: functional, cell-based
Rec1 = test: Antiproliferative activity against human REC1 cells assessed as inhibition of cell proliferation by MTT assay; assay type: functional, cell-based
[12] = Antiproliferative activity against human MINO cells assessed as inhibition of cell proliferation by MTT assay; assay type: functional, cell-based
[13] = molecular target: T1, Tyrosine-protein kinase BTK; test: Inhibition of BTK (unknown origin) incubated for 10 mins by caliper mobility shift assay
OCI-Ly10 = test: Antiproliferative activity against human OCILY10 cells assessed as inhibition of cell proliferation by MTT assay; assay type: functional, cell-based
L02 = test: Antiproliferative activity against human L02 cells assessed as reduction in cell viability by MTT assay; assay type: functional, cell-based
[14] = Oral bioavailability in rat at 30 mg/kg measured upto 8 hrs; assay type: ADME, organism-based; conditions: in vivo
HEK293 = test: Antiproliferative activity against human HEK293 cells assessed as reduction in cell viability by MTT assay; assay type: functional, cell-based
[15] = molecular target: T1, Tyrosine-protein kinase BTK; test: Inhibition of recombinant human wild type BTK using Poly(Glu4,Tyr1) and ATP as substrate measured after 2 hrs by ADP-Glo kinase assay
TMD8 [16] = test: Antitumor activity against human TMD8 cells xenografted in SCID mouse assessed as tumor growth inhibition at 15 mg/kg, po bid administered daily 20 days by caliper analysis; assay type: functional; conditions: TMD8, 480 h, time 20 day, read-out: TGI
TMD8 [17] = test: Antiproliferative activity against human TMD8 cells assessed as reduction in cell viability incubated for 96 hrs by MTT assay; assay type: functional, cell-based; conditions: TMD8, 96 h
[18] = Inhibition of recombinant human BTK cys481S mutant using Poly(Glu4,Tyr1) and ATP as substrate measured after 2 hrs by ADP-Glo kinase assay
TMD8 [19] = test: Antitumor activity against human TMD8 cells xenografted in SCID mouse assessed as tumor growth inhibition at 1.5 mg/kg, po bid administered daily 20 days by caliper analysis; assay type: functional; conditions: TMD8, 480 h, time 20 day, read-out: TGI
TMD8 [20] = test: Antitumor activity against human TMD8 cells xenografted in SCID mouse assessed as tumor growth inhibition at 3 mg/kg, po bid administered daily 20 days by caliper analysis; assay type: functional; conditions: TMD8, 480 h, time 20 day, read-out: TGI
Raji [21] = test: Antiproliferative activity against human Raji cells assessed as reduction in cell viability incubated for 96 hrs by MTT assay; assay type: functional, cell-based
TMD8 [22] = test: Antiproliferative activity against human TMD8 cells assessed as reduction in cell viability incubated for 72 hrs by CCK-8 assay; assay type: functional, cell-based; conditions: TMD8, 72 h
[23] = molecular target: Epidermal growth factor receptor (Homo sapiens, UniProt P00533); test: Inhibition EGFR (unknown origin) expressed in baculovirus expression system by ELISA
Z-138 = test: Antiproliferative activity against human Z138 cells reduction in cell viability incubated for 72 hrs by CellTiter-Glo luminescent cell viability assay; conditions: Z-138, 72 h

T1 sequence (Q06187 whole entry): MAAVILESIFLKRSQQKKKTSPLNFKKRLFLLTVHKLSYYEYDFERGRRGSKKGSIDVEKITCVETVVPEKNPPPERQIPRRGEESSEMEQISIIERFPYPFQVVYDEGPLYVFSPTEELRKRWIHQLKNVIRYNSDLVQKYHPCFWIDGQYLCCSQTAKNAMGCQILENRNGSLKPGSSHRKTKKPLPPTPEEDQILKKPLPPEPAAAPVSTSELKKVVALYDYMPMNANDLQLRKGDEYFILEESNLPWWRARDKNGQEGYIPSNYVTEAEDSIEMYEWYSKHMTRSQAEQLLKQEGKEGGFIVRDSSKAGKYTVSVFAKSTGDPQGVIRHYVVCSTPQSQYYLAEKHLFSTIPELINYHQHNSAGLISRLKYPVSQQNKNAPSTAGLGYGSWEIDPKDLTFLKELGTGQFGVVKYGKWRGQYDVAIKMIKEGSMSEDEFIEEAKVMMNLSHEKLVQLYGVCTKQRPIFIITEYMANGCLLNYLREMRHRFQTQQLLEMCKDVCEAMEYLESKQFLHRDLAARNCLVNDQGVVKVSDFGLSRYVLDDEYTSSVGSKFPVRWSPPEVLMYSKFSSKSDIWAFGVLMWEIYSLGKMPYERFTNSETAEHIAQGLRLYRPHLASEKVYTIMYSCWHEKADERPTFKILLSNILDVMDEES
Sequence of Epidermal growth factor receptor (P00533 whole entry): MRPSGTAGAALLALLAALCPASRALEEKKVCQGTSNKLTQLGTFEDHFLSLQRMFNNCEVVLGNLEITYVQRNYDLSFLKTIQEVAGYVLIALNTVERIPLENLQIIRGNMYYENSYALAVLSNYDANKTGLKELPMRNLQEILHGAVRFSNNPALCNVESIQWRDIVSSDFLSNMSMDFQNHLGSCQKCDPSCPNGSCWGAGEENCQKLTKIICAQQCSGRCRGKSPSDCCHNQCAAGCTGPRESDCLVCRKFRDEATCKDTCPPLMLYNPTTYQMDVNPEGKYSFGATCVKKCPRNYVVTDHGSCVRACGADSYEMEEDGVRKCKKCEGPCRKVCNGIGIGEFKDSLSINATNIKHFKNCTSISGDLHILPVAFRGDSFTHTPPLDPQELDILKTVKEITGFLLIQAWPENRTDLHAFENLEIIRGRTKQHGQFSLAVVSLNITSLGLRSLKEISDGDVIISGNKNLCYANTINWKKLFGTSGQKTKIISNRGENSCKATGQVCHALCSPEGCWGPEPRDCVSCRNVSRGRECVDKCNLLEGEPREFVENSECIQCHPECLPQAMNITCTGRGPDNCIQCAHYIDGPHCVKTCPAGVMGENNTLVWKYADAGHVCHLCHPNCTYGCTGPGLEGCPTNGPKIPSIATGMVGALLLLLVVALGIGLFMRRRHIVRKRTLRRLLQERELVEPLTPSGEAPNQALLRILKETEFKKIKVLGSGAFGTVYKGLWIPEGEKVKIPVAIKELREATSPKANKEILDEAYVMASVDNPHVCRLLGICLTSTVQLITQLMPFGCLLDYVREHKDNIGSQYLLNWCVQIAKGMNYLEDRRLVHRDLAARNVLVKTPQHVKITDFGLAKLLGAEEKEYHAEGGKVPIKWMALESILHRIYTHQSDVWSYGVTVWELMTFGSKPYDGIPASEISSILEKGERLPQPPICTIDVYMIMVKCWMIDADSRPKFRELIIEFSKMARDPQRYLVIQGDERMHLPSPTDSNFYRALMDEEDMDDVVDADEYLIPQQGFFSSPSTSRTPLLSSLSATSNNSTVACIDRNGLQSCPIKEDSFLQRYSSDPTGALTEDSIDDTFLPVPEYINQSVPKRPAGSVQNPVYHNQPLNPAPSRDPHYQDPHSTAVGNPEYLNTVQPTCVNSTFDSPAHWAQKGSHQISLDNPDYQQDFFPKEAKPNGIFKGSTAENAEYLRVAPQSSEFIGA
Sequence of Bcr/Abl fusion protein (P00519 whole entry, the tested form may be a part): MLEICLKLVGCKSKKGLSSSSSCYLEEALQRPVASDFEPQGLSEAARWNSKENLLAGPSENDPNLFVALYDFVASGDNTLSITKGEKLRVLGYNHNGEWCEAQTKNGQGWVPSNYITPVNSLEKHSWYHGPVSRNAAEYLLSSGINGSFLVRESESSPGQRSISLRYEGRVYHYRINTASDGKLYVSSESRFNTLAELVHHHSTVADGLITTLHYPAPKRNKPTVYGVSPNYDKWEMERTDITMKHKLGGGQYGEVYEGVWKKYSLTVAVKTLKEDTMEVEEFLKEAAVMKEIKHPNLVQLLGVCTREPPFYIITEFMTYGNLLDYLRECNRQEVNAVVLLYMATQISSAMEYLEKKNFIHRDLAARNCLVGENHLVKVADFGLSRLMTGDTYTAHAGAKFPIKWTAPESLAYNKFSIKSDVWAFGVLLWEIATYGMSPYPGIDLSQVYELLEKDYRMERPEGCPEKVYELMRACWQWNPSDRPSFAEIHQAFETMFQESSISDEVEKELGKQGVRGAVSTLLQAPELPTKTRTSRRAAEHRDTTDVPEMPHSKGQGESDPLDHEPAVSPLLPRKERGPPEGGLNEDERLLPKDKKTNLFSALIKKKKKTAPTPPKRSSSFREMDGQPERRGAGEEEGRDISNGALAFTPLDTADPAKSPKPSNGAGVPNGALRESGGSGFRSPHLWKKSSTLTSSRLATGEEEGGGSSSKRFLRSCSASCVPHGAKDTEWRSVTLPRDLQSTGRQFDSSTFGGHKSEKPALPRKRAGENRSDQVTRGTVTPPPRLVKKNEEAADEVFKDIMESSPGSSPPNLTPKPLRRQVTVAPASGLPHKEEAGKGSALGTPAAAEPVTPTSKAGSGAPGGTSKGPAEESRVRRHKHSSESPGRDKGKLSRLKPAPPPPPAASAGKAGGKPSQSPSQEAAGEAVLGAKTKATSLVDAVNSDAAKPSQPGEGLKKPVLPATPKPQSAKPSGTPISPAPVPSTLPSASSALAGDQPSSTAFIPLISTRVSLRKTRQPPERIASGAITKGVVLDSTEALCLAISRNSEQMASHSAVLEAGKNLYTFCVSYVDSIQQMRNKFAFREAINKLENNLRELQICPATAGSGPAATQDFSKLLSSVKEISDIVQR
Sequence of Bcr/Abl fusion protein (P11274 whole entry, further chain, the tested form may be a part): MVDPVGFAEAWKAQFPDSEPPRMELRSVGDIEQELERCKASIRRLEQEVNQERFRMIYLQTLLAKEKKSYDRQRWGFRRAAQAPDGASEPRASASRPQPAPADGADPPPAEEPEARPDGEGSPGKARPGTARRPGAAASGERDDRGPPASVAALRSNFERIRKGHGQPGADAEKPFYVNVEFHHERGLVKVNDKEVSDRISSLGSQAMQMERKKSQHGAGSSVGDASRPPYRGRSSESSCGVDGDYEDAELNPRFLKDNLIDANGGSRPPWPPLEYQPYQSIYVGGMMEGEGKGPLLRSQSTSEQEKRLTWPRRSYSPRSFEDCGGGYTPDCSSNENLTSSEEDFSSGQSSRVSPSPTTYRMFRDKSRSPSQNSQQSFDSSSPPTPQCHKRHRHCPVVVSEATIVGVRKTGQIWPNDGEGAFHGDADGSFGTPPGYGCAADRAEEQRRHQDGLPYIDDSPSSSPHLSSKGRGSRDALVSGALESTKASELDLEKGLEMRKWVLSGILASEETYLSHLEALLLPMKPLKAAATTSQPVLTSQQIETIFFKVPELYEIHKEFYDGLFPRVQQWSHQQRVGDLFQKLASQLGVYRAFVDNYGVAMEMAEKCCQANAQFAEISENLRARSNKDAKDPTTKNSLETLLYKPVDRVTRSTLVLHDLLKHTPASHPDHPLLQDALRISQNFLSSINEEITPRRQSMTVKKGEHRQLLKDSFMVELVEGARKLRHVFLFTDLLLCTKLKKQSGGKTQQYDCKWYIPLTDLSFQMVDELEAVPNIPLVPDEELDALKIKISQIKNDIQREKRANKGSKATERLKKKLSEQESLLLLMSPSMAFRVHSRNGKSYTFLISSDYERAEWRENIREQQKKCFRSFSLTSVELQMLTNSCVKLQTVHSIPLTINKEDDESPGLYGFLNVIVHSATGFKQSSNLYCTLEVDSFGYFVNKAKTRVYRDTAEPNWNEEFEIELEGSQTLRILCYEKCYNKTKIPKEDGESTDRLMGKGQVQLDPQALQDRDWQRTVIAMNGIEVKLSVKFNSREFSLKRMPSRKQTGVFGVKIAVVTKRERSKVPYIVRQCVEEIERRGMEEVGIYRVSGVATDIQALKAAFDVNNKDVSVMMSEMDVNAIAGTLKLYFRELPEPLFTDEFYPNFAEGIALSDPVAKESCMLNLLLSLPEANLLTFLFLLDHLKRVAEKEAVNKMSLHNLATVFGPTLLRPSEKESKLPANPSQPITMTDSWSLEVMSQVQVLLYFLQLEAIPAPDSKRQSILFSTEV

solubility kinetic [1]: 100 µg/mL (≈ 226 µM)
IC50 [2]: 1.32 nM
SMILES: C=CS(=O)(=O)N1CCC(Cn2cc(-c3ccc4c(c3)OCO4)c3c(N)ncnc32)CC1

IC50 [4]: 82 nM
SMILES: Nc1ccc(Cn2nc(-c3ccc(Oc4ccccc4)cc3)c3c(N)ncnc32)cc1
IC50 [3]: 13900 nM

IC50 (U-937 [5]): 38 nM
IC50 (Raji [6]): < 10800 nM
IC50 [7]: 17.7 nM
IC50 (HL-60): 109 nM
IC50 (Ramos [9]): < 10800 nM
SMILES: C=CC(=O)Nc1cccc(Nc2nc(Nc3ccc(Cn4cc(C)nc4CC)cc3)ncc2Cl)c1
Activity (U-937 [8]): 55%
IC50 (NAMALVA): < 10800 nM

IC50 [10]: 2650 nM
IC50 (Bcr/Abl fusion protein): 580 nM
GI50 (Ramos [11]): 4100 nM
SMILES: CN1CCN(c2ccc(Nc3nc(Nc4ccc(F)c(F)c4)c4ncn(CC5CC5)c4n3)cc2F)CC1

IC50 [13]: 2.5 nM
IC50 (OCI-Ly10): 160 nM
bioavailability [14]: 6%
SMILES: C=C(Cl)C(=O)N1CCC[C@H](n2nc(-c3ccc(Oc4ccccc4)cc3)c3c(N)ncnc32)C1
IC50 (DOHH-2): 220 nM
IC50 (Rec1): 10 nM
IC50 [12]: 560 nM
IC50 (L02): 15900 nM
IC50 (HEK293): 5460 nM

IC50 [4]: 75 nM
SMILES: Nc1cccc(Cn2nc(-c3ccc(Oc4ccccc4)cc3)c3c(N)ncnc32)c1
IC50 [3]: 9500 nM

IC50 (U-937 [5]): 106 nM
IC50 (Raji [6]): < 10800 nM
IC50 [7]: 42.4 nM
IC50 (HL-60): 116 nM
IC50 (Ramos [9]): < 10800 nM
SMILES: C=CC(=O)Nc1cccc(Nc2nc(Nc3ccc(Cn4cc(C)nc4CC)cc3)ncc2F)c1
IC50 (NAMALVA): < 10800 nM

IC50 [10]: 580 nM
GI50 (Ramos [11]): 4630 nM
SMILES: CN1CCN(c2ccc(Nc3nc(Nc4ccc(F)c(F)c4)c4ncn(CC5CC5)c4n3)cc2)CC1

IC50 [15]: 1 nM
IC50 [18]: 14 nM
IC50 (Raji [21]): 13200 nM
SMILES: C=CC(=O)N1CC2CC(n3nc(-c4ccc(C(=O)Nc5ccccn5)cc4)c4c(N)ncnc43)CC2C1 (stereo not given)
inhibition in vivo at 15 mg/kg (TMD8 [16]): 88%
IC50 (TMD8 [17]): 0.78 nM
inhibition in vivo at 1.5 mg/kg (TMD8 [19]): 10%
inhibition in vivo at 3 mg/kg (TMD8 [20]): 50%

IC50 [2]: 7 nM
IC50 [23]: 47.4 nM
SMILES: C=CC(=O)Nc1cccc(N2C(=O)OC(C)c3cnc(Nc4ccc(N5CCN(C)CC5)cc4OC)nc32)c1 (stereo not given)
IC50 (TMD8 [22]): 28 nM

IC50 [4]: 27 nM
SMILES: Nc1ncnc2c1c(-c1ccc(Oc3ccccc3)cc1)nn2Cc1cccc(NC(=O)CCl)c1
IC50 [3]: 900 nM

IC50 [2]: 4.7 nM
IC50 [23]: 28.8 nM
SMILES: C=CC(=O)Nc1cccc(N2C(=O)OCc3cnc(Nc4ccc(N5CCN(C)CC5)cc4OC)nc32)c1

IC50 [4]: 36 nM
SMILES: Nc1ncnc2c1c(-c1ccc(Oc3ccccc3)nc1)nn2C1CCCN(C(=O)CCl)C1 (stereo not given)
IC50 [3]: 400 nM
IC50 (Z-138): 400 nM

IC50 [2]: 1.71 nM
SMILES: C=CC(=O)N1CCCC(Cn2cc(-c3ccc(Oc4ccccc4)cc3)c3c(N)ncnc32)C1 (single isomer, unassigned)
